Where “and” joins values, the source holds several entries; their conditions need not be identical. Equal values may be shown once. Read-outs that look alike come from different tables or passages of the source.
Tests used:
[1] = Pharmacokinetics after oral administration of CK polymorphs in rats (20 mg/kg); format: in vivo, Sprague-Dawley rats; conditions: for Fabs (absolute bioavailability): p.o. 20 mg/kg vs i.v. 10 mg/kg, dose-adjusted AUC ratio; for Tmax / t1/2z / AUC(0–t) / AUC(0–∞) / CLz/F / Cmax / Vz/F: 20 mg/kg
[2] = DSC thermal analysis of CK polymorphs; format: physicochemical; conditions: 20 K/min from 20 to 400 °C, dry nitrogen flow
Procedure: DSC measurements were performed on a DSC204 Phoenix calorimeter (NETZSCH, Selb, Germany) with a heating rate of 20 K/min from 20 to 400 °C. The dry nitrogen flow was about 50 mL/min. Data were analyzed using NETZSCH analysis software.

[3] = tested on: carrageenan-induced acute paw inflammation; experiment: Paw swelling test induced by carrageenan in rats; format: in vivo, Sprague-Dawley rats; design: paw volume: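 right hind paw volume measured with a plethysmometer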; conditions: for paw volume / paw edema: mean±SD of 6 rats; for edema inhibition: versus model group
Procedure: Rats were divided into 11 groups of six animals each (sex in half): the normal group, the model group, indomethacin group (1 mg/kg), and form I, II, III, IV groups (each form set 10 mg/kg and 20 mg/kg groups, respectively). Indomethacin and CK were ground and suspended in 0.5% CMC-Na solution. […] The same volume of saline was injected into the normal group. […] Paw edema and inhibitory rate were calculated as the following formula, and the differences among groups were compared with the t-test. Paw edema (%) = (Vn − V0)/V0 × 100%. Vn: paw volume at different time intervals after carrageenan injection. V0: paw volume before carrageenan injection. Inhibitory rate (%) = (Em − Ee)/Em × 100%. Em: paw edema of the model group. Ee: paw edema of the experimental group.

[4] = Pharmacokinetics after oral administration of CK polymorphs in rats (20 mg/kg); format: in vivo, Sprague-Dawley rats; conditions: p.o. 20 mg/kg, individual rats 1-3
Procedure: All samples were analyzed with a triple quadrupole LC-MS/MS (API 4000 LC-MS/MS, AB Sciex, Framingham, MA, USA) coupled with an Agilent 1200 HPLC system (Agilent Technologies, Palo Alto, CA, USA). The MS was equipped with an electrospray system (ESI). The N2 gas temperature and ion-spray voltage were set to 550 °C and 4.5 kV, respectively. CK was measured in multiple reaction monitoring (MRM) mode using a negative electrospray ionization source at m/z 667.4 → 621.2 for CK (CID 25.6 v) and m/z 271.2 → 228.8 for internal standard (IS, (E)-5-(4-fluorostyryl)-2-isopropylbenzene-1,3-diol, Welichem Biotech Inc., Wayburne Drive Burnaby, BC, Canada) (CID 28.3 v) with a dwell time of 0.1 s.
Rats were divided randomly into 5 groups of six animals each (sex in half) and given 7 days to acclimatize to the facility before the experiments began. The four forms of CK were suspended in 0.5% sodium carboxymethyl cellulose (CMC-Na) solution and orally administered to rats at a dose of 20 mg/kg. A CK solution in a mixed solvent of dimethyl sulfoxide (DMSO)/castor oil/physiologic saline (3:5:92, v/v) was intravenously administered to the remaining group via the tail vein at a dose of 10 mg/kg. Blood samples were collected by retro-orbital puncture at the following times: 0.167, 0.333, 0.667, 1, 2, 3, 4, 6, 9, 12, and 24 h for the oral administration, and at 0.0083, 0.05, 0.133, 0.25, 0.5, 1, 2, 4, 6, and 9 h for the intravenous administration. Plasma samples were obtained by centrifuging a heparinized blood tube at 4000 rpm for 5 min and then stored at −70 °C until analysis.
The procedure for drug extraction from plasma samples was as follows: 0.2 mL acetonitrile, 0.2 mL plasma sample, and 10 μL IS (1 µg/mL) were added into a 1.5 mL Eppendorf-type tube. This mixture was vortexed for 1 min and then treated with 0.8 mL of methyl tert-butyl ether (MTBE) to precipitate the plasma proteins. After a mechanical vortex for 1 min and subsequent centrifugation (4000 rpm, 5 min), 0.8 mL of the supernatant was transferred and blow-dried with N2 at 40 °C in a water bath. Finally, the residue was dissolved in 120 μL of mobile phase, and then 10 μL was subjected to HPLC for analysis. […] Intra- and inter-day precision and accuracy never exceeded 15% by analyzing six replicate samples.
The CK pharmacokinetic parameters in rats, including the area under the curve (AUC(0–t) and AUC(0–∞)), mean residence time (MRT(0–t) and MRT(0–∞)), maximum concentration (Cmax), time to maximum concentration (Tmax), half-life (t1/2), apparent distribution volume (V), and total plasma clearance (CL), were derived from plasma concentration-time curves by using non-compartmental analysis (NCA) with DAS 2.0 software (Drug And Statistics, Mathematical Pharmacology Professional Committee of China, Shanghai, China). The absolute bioavailability (Fabs) was calculated from the dose-adjusted ratio of AUCp.o. to AUCi.v.. One-way analysis of variance (ANOVA) by SPSS 11.5 (SPSS Inc., Chicago, IL, USA) was conducted to compare the primary PK parameters.

[5] = female rats, p.o. 20 mg/kg, individual rats 1-3
[6] = female rats, p.o. 20 mg/kg, mean ± SD (n = 3)
[7] = male rats, p.o. 20 mg/kg, mean ± SD (n = 3)
[8] = 10 mg/kg p.o. qd 3 days, 3h after carrageenan, listed as From IV
[9] = 10 mg/kg p.o. qd 3 days, 4h after carrageenan, listed as From IV
[10] = 10 mg/kg p.o. qd 3 days, 5h after carrageenan, listed as From IV
[11] = 10 mg/kg p.o. qd 3 days, 6h after carrageenan, listed as From IV
[12] = 20 mg/kg p.o. qd 3 days, 3h after carrageenan, listed as From IV
[13] = 20 mg/kg p.o. qd 3 days, 4h after carrageenan, listed as From IV
[14] = 20 mg/kg p.o. qd 3 days, 5h after carrageenan, listed as From IV
[15] = 20 mg/kg p.o. qd 3 days, 6h after carrageenan, listed as From IV
[16] = 1 mg/kg p.o. qd 3 days, 3h after carrageenan
[17] = 1 mg/kg p.o. qd 3 days, 4h after carrageenan
[18] = 1 mg/kg p.o. qd 3 days, 5h after carrageenan
[19] = 1 mg/kg p.o. qd 3 days, 6h after carrageenan

CC(C)=CCCC(C)(OC1OC(CO)C(O)C(O)C1O)C1CCC2(C)C1C(O)CC1C3(C)CCC(O)C(C)(C)C3CCC12C [Form IV, 20-O-β-D-glucopyranosyl-20(S)-protopanaxadiol]
Fabs (absolute bioavailability) ([1]; female rats): 4.07% | Tmax [1, 5]: 3.00 h | t1/2z [1, 5]: 3.63 h and 3.00 h and 2.43 h | AUC(0–t) [1, 6]: 1312.0 ± 471.95 ng·h/mL | AUC(0–∞) [1, 6]: 1320.17 ± 471.22 ng·h/mL and 1320.2 ± 471.22 ng·h/mL | CLz/F [1, 6]: 274.5 ± 94.5 mL/min/kg and 275 ± 94.5 mL/min/kg | Cmax [1, 6]: 218.75 ± 111.66 ng/mL and 218.8 ± 111.7 ng/mL | Tmax [1, 6]: 2.3 ± 0.58 h | Vz/F [1, 6]: 73.61 ± 37.67 L/kg and 73.6 ± 37.7 L/kg | t1/2z [1, 6]: 3.02 ± 0.60 h and 3.0 ± 0.60 h | Tmax ([1]; female, Sprague-Dawley, rat, plasma, po, female rats, p.o. 20 mg/kg, mean ± SD (n = 3), read-out: Tmax): 2.33 ± 0.58 h | Fabs (absolute bioavailability) ([1]; male rats): 2.59% | Vz/F ([1]; male rats, p.o. 20 mg/kg, individual rats 1-3): 162.18 L/kg and 159.92 L/kg and 86.19 L/kg | AUC(0–t) [1, 7]: 758.62 ± 245.16 ng·h/mL | AUC(0–∞) [1, 7]: 784.11 ± 219.63 ng·h/mL | CLz/F [1, 7]: 446.5 ± 115 mL/min/kg and 447 ± 115 mL/min/kg | Cmax [1, 7]: 166.43 ± 87.20 ng/mL and 166.4 ± 87.20 ng/mL | Vz/F [1, 7]: 136.10 ± 43.24 L/kg and 136 ± 43.2 L/kg | t1/2z [1, 7]: 3.48 ± 0.47 h and 3.5 ± 0.47 h | decrease in the bioavailability from form I to form IV ([1]; rats, p.o. 20 mg/kg): 34% | DSC onset of the decomposition endotherm (thermodynamical stability) [2]: 250.2 °C | paw volume ([3]; 10 mg/kg p.o. qd 3 days, 0h (before carrageenan), listed as From IV): 1.60±0.05 | paw edema [3, 8]: 63.73±8.98% | paw volume [3, 8]: 2.62±0.13 | paw edema [3, 9]: 60.32±7.19% | paw volume [3, 9]: 2.57±0.10 | paw edema [3, 10]: 40.95±1.48% | paw volume [3, 10]: 2.26±0.05 | edema inhibition [3, 10]: 18.24% | paw edema [3, 11]: 30.95±10.46% | paw volume [3, 11]: 2.09±0.10 | edema inhibition [3, 11]: 13.86% | paw volume ([3]; 20 mg/kg p.o. qd 3 days, 0h (before carrageenan), listed as From IV): 1.62±0.05 | paw edema [3, 12]: 63.17±8.40% | paw volume [3, 12]: 2.64±0.16 | paw edema ([3]; 20 mg/kg p.o. qd 3 days, 4h after carrageenan): 58.6 ± 3.6% | paw edema [3, 13]: 58.65±3.69% | paw volume [3, 13]: 2.57±0.09 | paw edema [3, 14]: 39.21±10.18% | paw volume [3, 14]: 2.26±0.13 | edema inhibition [3, 14]: 21.72% | paw edema [3, 15]: 31.27±12.96% | paw volume [3, 15]: 2.13±0.15 | edema inhibition [3, 15]: 12.98% | paw edema, difference from the model group ([3]; any time point post carrageenan injection): no statistical difference | AUC(0-t) ([4]; female rats): 1818.83 ng·h/mL and 1232.02 ng·h/mL and 885.16 ng·h/mL | AUC(0-∞) ([4]; female rats): 897.84 ng·h/mL and 1828.44 ng·h/mL and 1234.21 ng·h/mL | CLz/F ([4]; female rats): 371.3 mL/min/kg and 182.3 mL/min/kg and 270.2 mL/min/kg | Cmax ([4]; female rats): 122.10 ng/mL and 340.98 ng/mL and 193.16 ng/mL | Vz/F ([4]; female rats): 116.76 L/kg and 47.28 L/kg and 56.79 L/kg | AUC(0-t) ([4]; male rats): 540.26 ng·h/mL and 711.78 ng·h/mL and 1023.81 ng·h/mL | AUC(0-∞) ([4]; male rats): 603.16 ng·h/mL and 720.70 ng·h/mL and 1028.47 ng·h/mL | CLz/F ([4]; male rats): 552.7 mL/min/kg and 462.5 mL/min/kg and 324.2 mL/min/kg | Cmax ([4]; male rats): 115.38 ng/mL and 116.79 ng/mL and 267.12 ng/mL | t1/2z ([4]; male rats): 3.99 h and 3.07 h and 3.39 h

COc1ccc2c(c1)c(CC(=O)O)c(C)n2C(=O)c1ccc(Cl)cc1 [Indomethacin, indomethacin, reference compound]
paw volume ([3]; 1 mg/kg p.o. qd 3 days, 0h (before carrageenan)): 1.60±0.13 | paw edema [3, 16]: 48.00±18.21% | paw volume [3, 16]: 2.35±0.15 | edema inhibition [3, 16]: 25.32% | paw edema [3, 17]: 43.75±15.39% | paw volume [3, 17]: 2.28±0.12 | edema inhibition [3, 17]: 29.85% | paw edema [3, 18]: 30.74±10.87% | paw volume [3, 18]: 2.08±0.15 | edema inhibition [3, 18]: 40.61% | paw edema [3, 19]: 23.41±9.18% | paw volume [3, 19]: 1.97±0.12 | edema inhibition [3, 19]: 40.46%
